Data: PMC5342196 (PLoS ONE, 2017)

Test system: Lac161_ORF7
Assay: glucose release, glucose oxidase/peroxidase assay
Format: biochemical, metagenome: corn field soil
Conditions: 100 mM MES pH 6.0, 50 °C (methods print Lac161_ORF3 for this temperature), 30 min

Km: 1800 µM
SMILES: OC[C@H]1O[C@@H](O[C@H]2[C@H](O)[C@@H](O)C(O)O[C@@H]2CO)[C@H](O)[C@@H](O)[C@H]1O (stereo partly shown) [lactose]
